Patent US9273006B2, “Anabolic compounds for treating and preventing bone loss diseases” (SYDDANSK UNIVERSITET, priority 2012, dated 2016)
Where two headings read alike, the source gives them in different places.

System: hMSC-TERT
Conditions: 6 days after induction, hMSC-TERT
[1] = 1 μM inhibitor in osteogenic inducing media
[2] = 10 μM inhibitor in osteogenic inducing media

Row | SMILES | Relative ALP activity [1] | Relative ALP activity [2]
1 | CCCCCCCCCCCCCCCC(=O)OC(CC(=O)O)C[N+](C)(C)C.[Cl-] (racemic) [Palmitoyl-DL-carnitine Cl] | 0.9966 | 0.9612
2 | Nc1ncc2[nH]cnc2n1 [2-Aminopurine] | 1.017 | 0.6855
3 | Nc1ncnc2c1c(I)cn2[C@@H]1O[C@H](CO)[C@@H](O)[C@H]1O [5-Iodotubercidin] | 1.035 | Toxic
4 | N#CC(C#N)=Cc1ccc([N+](=O)[O-])c(O)c1 [AG-126] | 0.9053 | 1.156
5 | N#CC(=Cc1ccc2[nH]ccc2c1)C(N)=C(C#N)C#N [AG-370] | 1.057 | 0.7902
6 | N#C/C(=C/c1ccc(O)c(O)c1)C(=O)NCc1ccccc1 [AG-490] | 0.9657 | 0.3482
7 | N#C/C(=C\c1ccc(O)c(O)c1)C(=O)Nc1ccccc1 [AG-494] | 0.8788 | 0.33
8 | COc1cc(/C=C(\C#N)C(N)=O)cc(CSc2nc3ccccc3s2)c1O [AG-825] | 0.8754 | 1.056
9 | CC(C)(C)c1cc(/C=C(\C#N)C(N)=S)cc(C(C)(C)C)c1O [AG-879] | 0.6801 | 0.7467
10 | COc1cc2ncc(-c3ccccc3)nc2cc1OC [AG-1296] | 0.7685 | 0.5376
11 | O=c1cc(-c2ccc(O)cc2)oc2cc(O)cc(O)c12 [Apigenin] | 0.9029 | 0.4027
12 | Cc1ccc(S(=O)(=O)/C=C/C#N)cc1 [BAY 11-7082] | 0.9356 | Toxic
13 | O=C(O)c1ccc2nc(-c3ccccc3)c(-c3ccccc3)nc2c1 [BML-257] | 0.8443 | 0.7884
14 | CC(C)c1cnc(NC(=O)Cc2ccccc2)s1 [BML-259] | 1.001 | 0.7259
15 | OC[C@H]1O[C@@H](n2cnc3cc(Cl)c(Cl)cc32)[C@H](O)[C@@H]1O [DRB] | 0.9718 | 0.5043
16 | O=c1c(-c2ccc(O)cc2)coc2cc(O)ccc12 [Daidzein] | 1.14 | 1.025
17 | COc1c(C=O)c(O)cc2c1C(=O)c1ccccc1C2=O [Damnacanthal] | 0.8711 | 0.3273

Row | SMILES | Relative ALP activity [1] | Relative ALP activity [2]
18 | COC(=O)/C=C/c1cc(O)ccc1O [Erbstatin analog] | 0.8892 | 0.7022
19 | CN(C)CCCn1cc(C2=C(c3c[nH]c4ccccc34)C(=O)NC2=O)c2ccccc21 [GF 109203X] | 0.3532 | Toxic
20 | O=C1Nc2ccc(I)cc2/C1=C/c1cc(Br)c(O)c(Br)c1 [GW 5074] | 0.7969 | 0.5773
21 | O=c1c(-c2ccc(O)cc2)coc2cc(O)cc(O)c12 [Genistein] | 1.215 | 0.7692
22 | CC1CNCCN1S(=O)(=O)c1cccc2cnccc12 (centres unmarked) [H-7] | 1.087 | 0.9015
23 | NCCNS(=O)(=O)c1cccc2cnccc12 [H-9] | 0.9547 | 0.9783
24 | O=S(=O)(NCCNC/C=C/c1ccc(Br)cc1)c1cccc2cnccc12 [H-89] | 0.8924 | 0.3847
25 | NC(N)=NCCNS(=O)(=O)c1cccc2cnccc12 [HA-1004] | 0.9706 | 0.9424
26 | O=S(=O)(c1cccc2cnccc12)N1CCCNCC1 [HA-1077] | 1.02 | 0.908
27 | COCc1cc(O)c(O)c(O)c1-c1c(COC)cc(O)c(O)c1O [HBDDE] | 0.8861 | 0.7296
28 | O=C(O)c1cc(NCc2cc(O)ccc2O)ccc1O [HDBA] | 0.8708 | 0.9836
29 | O=P(O)(O)C(O)c1ccc2ccccc2c1 (centres unmarked) [HNMPA] | 0.864 | 0.8557
30 | Cc1cc(O)c2c(=O)c3c(O)cc(O)c4c5c(O)cc(O)c6c(=O)c7c(O)cc(C)c8c1c2c(c34)c(c78)c65 [Hypericin] | 0.8534 | 
31 | O=C1Nc2ccccc2/C1=C1/Nc2ccccc2C1=O [Indirubin] | 0.3571 | 0.18
32 | CN([C@@H](Cc1ccc(OS(=O)(=O)c2cccc3cnccc23)cc1)C(=O)N1CCN(c2ccccc2)CC1)S(=O)(=O)c1cccc2cnccc12 [KN-62] | 0.956 | 0.9222
33 | COc1ccc(S(=O)(=O)N(CCO)c2ccccc2CN(C)C/C=C/c2ccc(Cl)cc2)cc1 [KN-93] | 0.7347 | 0.6802
